Molecules are shown by their SMILES. “And” between values parts separate entries of the source, which are not always exact repeats. Identical values can stand only once. Like-named read-outs stand apart in the source and are kept apart here. Bounds are passed on as bounds.

One experiment concerns P. falciparum Dd2-2D4. In words: P. falciparum asexual blood stage (ABS) growth assay, SYBR Green, 72 h, wild-type parasites. The class given is cell-based, Plasmodium falciparum. Particulars: for EC50: Plasmodium falciparum, DD2.
In experiment [1] the test system is halofuginone-induced P. falciparum (elevated proline homeostasis). Kind of experiment: P. falciparum ABS growth assay, SYBR Green, 72 h, halofuginone-induced parasites. The format is cell-based, Plasmodium falciparum. Particulars: for EC50: Plasmodium falciparum, DD2. An excerpt:
(§1) Parasites were maintained under standard culture conditions as described previously[56],[57]. […] The P. falciparum Dd2 cell lines used in this study (Dd2-2D4, halofuginone-induced, and HFGR-I) have previously undergone whole genome sequencing in our labs. They were also routinely assayed and EC50 values determined using the ABS growth assay (see below) with a panel of standard antimalarial compounds, including halofuginone which has differential activity for the three Dd2 lines used in these experiments. Data were cross-referenced for consistency with literature reported values and data previously acquired in the lab.
(§2) This assay was performed as previously described. In short, P. falciparum erythrocytic-stage parasites at 1% parasitemia and 1% hematocrit in RPMI + 0.5% Albumax were seeded at 40 μL/well in 384-well plates with test compounds in triplicate, dose-response format with 10 μM dihydroartemisinin as a kill-control and blank (no compound) wells as a growth-control. […] After 72 h, growth was quantified by measuring fluorescence (Molecular Devices SpectraMax iD5) following SYBR Green 1 staining. Data were analyzed in Excel and plotted in PRISM (V. 8.4.3–9.1.0, GraphPad).

Experiment [2] relates to HFGR-I P. falciparum (elevated proline homeostasis and PfcProRS^L482H). In words: P. falciparum ABS growth assay, SYBR Green, 72 h, HFGR-I parasites. Particulars: for EC50: Plasmodium falciparum, DD2, read-out: Dd2 (EC50 [nM]) HFGR1 mean. The class given is cell-based, Plasmodium falciparum.
From the text: as §1, §2

The target in a further experiment is HsProRS (Homo sapiens, UniProt P07814). Kind of experiment: TR-FRET ligand displacement assay with tracer MAT379 (CoraFluor-1-Halo and anti-His6 antibody formats). The format is binding. More on the design: made in house; host or cells: E. coli SoluBL-21. Background: TR-FRET usually uses a lanthanide donor and a delayed reading to cut background.
A further experiment addresses T1, PfcProRS (Plasmodium falciparum, UniProt Q8I5R7).
T1 construct: made in house; host or cells: E. coli SoluBL-21
The class given is binding. The note with it: for Normalized response, dose-response replicates (SI Fig 14): replicates 1-3.

The mark [3] stands for this setting: HsProRS (KD [nM]) + 100 μM proline mean, + 100 μM proline.
[4] abbreviates: SI Fig 16b, values on -log scale, read-out: ABS - Dd2-2D4 (converted).

T1 sequence (Q8I5R7 249-746): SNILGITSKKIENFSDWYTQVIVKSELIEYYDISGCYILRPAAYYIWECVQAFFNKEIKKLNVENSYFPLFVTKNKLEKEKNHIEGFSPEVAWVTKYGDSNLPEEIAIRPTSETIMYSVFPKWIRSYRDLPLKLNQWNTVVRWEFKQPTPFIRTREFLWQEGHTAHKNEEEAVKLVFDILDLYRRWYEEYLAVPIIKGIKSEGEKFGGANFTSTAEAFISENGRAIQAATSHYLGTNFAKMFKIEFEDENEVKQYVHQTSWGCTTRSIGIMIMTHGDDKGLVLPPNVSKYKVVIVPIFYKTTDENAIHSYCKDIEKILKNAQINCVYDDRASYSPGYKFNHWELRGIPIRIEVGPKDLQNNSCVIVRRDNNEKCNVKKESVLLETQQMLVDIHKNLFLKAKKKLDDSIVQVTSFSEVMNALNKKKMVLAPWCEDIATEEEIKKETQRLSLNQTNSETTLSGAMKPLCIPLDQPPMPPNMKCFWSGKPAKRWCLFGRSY
Chain of HsProRS (P07814 996-1512): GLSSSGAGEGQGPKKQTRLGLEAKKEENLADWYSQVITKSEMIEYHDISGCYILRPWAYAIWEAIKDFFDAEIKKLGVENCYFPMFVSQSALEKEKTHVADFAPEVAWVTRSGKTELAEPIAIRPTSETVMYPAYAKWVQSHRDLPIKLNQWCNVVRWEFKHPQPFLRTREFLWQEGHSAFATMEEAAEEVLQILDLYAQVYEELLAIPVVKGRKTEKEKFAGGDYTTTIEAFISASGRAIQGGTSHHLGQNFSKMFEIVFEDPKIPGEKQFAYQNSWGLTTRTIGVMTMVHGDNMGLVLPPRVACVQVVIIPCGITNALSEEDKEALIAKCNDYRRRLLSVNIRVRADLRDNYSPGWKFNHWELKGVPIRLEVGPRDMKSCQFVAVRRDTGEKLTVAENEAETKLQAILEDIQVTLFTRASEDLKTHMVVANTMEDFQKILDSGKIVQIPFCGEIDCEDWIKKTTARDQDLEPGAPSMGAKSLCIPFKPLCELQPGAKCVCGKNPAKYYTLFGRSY

As usually defined, the IC50 is the concentration needed to halve the response being measured. A higher IC50 goes with a need for much substance. In general, Kd refers to the concentration at which binding is half-saturated. Take `CC(C)N(C(=O)Nc1nccnc1C(=O)NC1Cc2ccccc2C1)C(C)C` [MAT107 (5)]: the “% signal at 10 μM, wildtype (Dd2-2D4)” value in the experiment with P. falciparum Dd2-2D4 (wildtype (Dd2-2D4), 10 μM) was determined as 80.9%. Besides, the EC50 is above 10 µM in experiment [1] (halofuginone-induced, bound given in μM, read-out: Dd2 EC50 halofuginone-induced, bound) and 6850 nM in experiment [2]. In experiment [1] (halofuginone-induced, 10 μM), the “% signal at 10 μM, halofuginone-induced” value is 58.7%. The same compound yielded a 50% inhibitory concentration (IC50) on HsProRS above 10000 nM. Also, on HsProRS (setting [3]), the Kd was found to be 1020 nM. Moreover, the “HsProRS % signal at 10 μM” value at HsProRS (no added proline/ATP (-), 10 μM) was 63.6%.

Regarding `Nc1ncnc2c1ncn2[C@@H]1O[C@H](COS(=O)(=O)NC(=O)[C@H]2CCCN2)[C@@H](O)[C@H]1O` [D-ProSA, reference compound], the EC50 was 2550 nM with P. falciparum Dd2-2D4 (setting [4]), 2550 nM in the experiment on P. falciparum Dd2-2D4 (read-out: Dd2 (EC50 [nM]) wildtype (Dd2-2D4) mean), 2.73 µM in experiment [1] (read-out: Dd2 (EC50 [nM]) halofuginone-induced mean) and 2430 nM in experiment [2].

Consider `CC(C)(C)OC(=O)NCCCCCC(=O)NC1CCN(C(=O)Nc2nccnc2C(=O)NC2Cc3ccccc3C2)CC1` [compound 41], for which the EC50 in the experiment with P. falciparum Dd2-2D4 (setting [4]) is 2110 nM. Besides, the “dose-response value, Replicates 1-3 (SI Fig 2f)” value in experiment [2] (Log[inhibitor] (M) -6.638) was found to be 97. In addition, the “Normalized response, dose-response replicates (SI Fig 14)” value (from here on “Normalized response”) is 2.54E-01 and 1.79E-01 and 1.37E-01 at PfcProRS (Log[inhibitor] (M) -5.000); 2.59E-01 and 1.90E-01 and 1.97E-01 on PfcProRS (Log[inhibitor] (M) -5.301); 2.56E-01 and 2.59E-01 and 2.72E-01 at PfcProRS (Log[inhibitor] (M) -5.601); 5.14E-01 and 5.00E-01 and 4.61E-01 at PfcProRS (Log[inhibitor] (M) -5.904); 7.49E-01 and 5.18E-01 and 5.00E-01 on PfcProRS (Log[inhibitor] (M) -6.208); 8.38E-01 and 7.48E-01 and 7.12E-01 on PfcProRS (Log[inhibitor] (M) -6.509). Further, the “Normalized response” value was 9.37E-01 and 8.75E-01 and 9.23E-01 on PfcProRS (Log[inhibitor] (M) -6.796); 9.89E-01 and 8.01E-01 and 8.98E-01 at PfcProRS (Log[inhibitor] (M) -7.108); 9.10E-01 and 9.82E-01 and 9.58E-01 on PfcProRS (Log[inhibitor] (M) -7.409); 9.67E-01 and 1.08E+00 and 8.83E-01 at PfcProRS (Log[inhibitor] (M) -7.710); 9.89E-01 and 1.01E+00 and 9.34E-01 at PfcProRS (Log[inhibitor] (M) -8.000); 1.15E+00 and 9.52E-01 and 9.87E-01 on PfcProRS (Log[inhibitor] (M) -8.301). Besides, the “Normalized response” value was 1.13E+00 and 1.02E+00 and 1.04E+00 on PfcProRS (Log[inhibitor] (M) -8.602); 9.78E-01 and 9.94E-01 and 1.01E+00 on PfcProRS (Log[inhibitor] (M) -9.000); 1.02E+00 and 9.71E-01 and 8.87E-01 at PfcProRS (Log[inhibitor] (M) -9.301). Further, the “PfcProRS -- best Kd” value on PfcProRS (SI Fig 16a, values on -log scale) turned out to be 6.740. In addition, the Kd on HsProRS (setting [3]) is 561 nM; on HsProRS (HsProRS - best Kd, SI Fig 16a, values on -log scale), 139 nM.

Source of the values: article PMC9403976, “Elucidating the path to Plasmodium prolyl-tRNA synthetase inhibitors that overcome halofuginone resistance” (Nature Communications, 2022).
